Test results reported in ChEMBL document CHEMBL5728428, “Bicyclic lactams and methods of use thereof” (2021).

Biological target: T1, Receptor-interacting serine/threonine-protein kinase 1 (Homo sapiens, UniProt Q13546)
T1 sequence (Q13546 whole entry): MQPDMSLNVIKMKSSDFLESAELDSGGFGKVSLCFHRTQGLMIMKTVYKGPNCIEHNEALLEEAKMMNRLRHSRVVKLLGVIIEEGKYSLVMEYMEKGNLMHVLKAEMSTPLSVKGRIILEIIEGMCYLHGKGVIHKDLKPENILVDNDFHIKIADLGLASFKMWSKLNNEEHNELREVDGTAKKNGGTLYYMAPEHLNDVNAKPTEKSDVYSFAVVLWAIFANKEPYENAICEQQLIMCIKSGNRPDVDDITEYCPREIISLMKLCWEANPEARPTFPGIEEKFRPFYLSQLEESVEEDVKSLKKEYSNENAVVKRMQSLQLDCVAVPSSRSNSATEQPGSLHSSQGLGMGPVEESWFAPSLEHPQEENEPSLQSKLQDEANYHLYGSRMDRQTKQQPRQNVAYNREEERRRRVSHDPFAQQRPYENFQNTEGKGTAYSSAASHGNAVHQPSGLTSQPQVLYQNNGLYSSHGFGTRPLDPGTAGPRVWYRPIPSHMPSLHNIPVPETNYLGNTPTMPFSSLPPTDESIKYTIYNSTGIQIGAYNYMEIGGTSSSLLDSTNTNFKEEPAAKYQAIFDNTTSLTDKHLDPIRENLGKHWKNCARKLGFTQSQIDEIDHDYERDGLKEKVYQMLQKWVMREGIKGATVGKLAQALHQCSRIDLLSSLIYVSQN
Assay: Biochemical Assay: The ability of the receptor interacting protein kinase (RIPK1) to catalyze the hydrolysis of adenosine-5′-triphosphate (ATP) is monitored using the Transcreener ADP (adenosine-5′-diphosphate) assay (BellBrook Labs).

In the case of `CN1C(=O)[C@@H](NC(=O)c2n[nH]c3c2CC(C)(C)OC3)COc2ccccc21`, the Ki is reported as 469 nM.
